Results as given in PMC6052345, “Functional Analysis of the Chemosensory Protein MsepCSP8 From the Oriental Armyworm Mythimna separata” (Frontiers in Physiology, 2018).
Where two headings read alike, the source gives them in different places.

Columns and labels:
[1] = molecular target: MsepCSP8 (Mythimna separata, UniProt A0A1V1WC03); assay: Fluorescence competitive binding assay with 1-NPN as fluorescent probe; settings: for IC50: displacement of 1-NPN; for Ki: calculated from IC50; for binding affinity to MsepCSP8 in words: discussion of Table 1, pH not stated; for Kd: dissociation constant, saturation and Scatchard plot
Method: The expressed protein was obtained in soluble form in the supernatant, and purification was accomplished using a Ni affinity chromatography column (GE Healthcare, Uppsala, Sweden). Bound protein was eluted by digestion with recombinant bovine enterokinase at 26°C for 15 h to remove the His-tag. Expression and purification were verified by 15% sodium dodecyl sulfate-polyacrylamide gel electrophoresis (SDS-PAGE), and protein concentration was measured as described by [Cao et al. (2017)]. Dialysis of purified protein was carried out in 30 mM Tris-HCl buffer [Tris(hydroxymethyl)aminomethane] at pH 7.4 and pH 5.0 before fluorescence binding assays, and protein was stored at -80°C until use.
Fluorescence competitive binding assays were performed to determine the binding affinity of MsepCSP8 for 56 ligands using N-phenyl-1-naphthylamine (1-NPN) as a fluorescent probe. Stock solutions of ligands were prepared in spectrophotometric-grade methanol. […] Mixtures of 1-NPN and protein were excited at 337 nm wavelength, and emission spectra were recorded from 360 to 600 nm using a fluorescence spectrophotometer (RF-5301PC Shimadzu, Kyoto, Japan). Binding of selected ligands with MsepCSP8 (1:1 protein:ligand stoichiometry) was evaluated using 1-NPN as a fluorescent probe, with the final concentration of the product ranging from 0 to 20 μM. […] Three independent measurements were made for all experiments. The binding affinity (Ki) of MsepCSP8 for all tested ligands was calculated based on IC50 values as follows:
Ki=IC50/(1 + [1−NPN]/K1–NPN)
where [1-NPN] is the free concentration of 1-NPN, and K1-NPN is the dissociation constant of the complex of MsepCSP8 and 1-NPN.

[2] = test system: Mythimna separata; assay: Y-tube olfactometer bioassay (before RNAi); assay type: in vivo
Text: Mythimna separata behavioral responses were examined by olfactometer bioassays ([Cao et al., 2015]) performed in a glass Y-tube (base = 4.0 cm diameter by 25 cm length, arms = 3.0 cm diameter by 26 cm length) using 10 different volatile compounds (Sigma-Aldrich).
Air entering the tube was passed through activated charcoal for filtration and humidified using deionised water. Filtered air was split between two chambers; one chamber containing liquid paraffin (used as control) and the other containing the test volatile. Each chamber was connected to one arm of the Y-tube. Airflow was kept constant at 6.0 l min^-1 throughout the experiment using an inline flow meter (Gilmont Instr., Barnant Co., Barrington, IL, United States). Orange light was used for this experiment. The whole experiment was conducted in a dark room, and the relative humidity and temperature were maintained at 70 ± 5% and 25 ± 1°C, respectively. A 10 μl of volatile compound was applied to 10 mm × 10 mm filter papers (Whatman No. 1) that was placed in the chamber connected to one arm of the Y-tube. A separate Y-tube was used for male and female moths.
To perform bioassays, a 3-day-old moth, either male or female, was released in the base of the Y-tube. Each insect was given 10 min to respond to the treatment, and the number of moths showing attraction, repulsion or no response was counted. Approximately 30 min before onset of the trial, male and female adults were placed into separate glass tubes (50 ml) and covered with a cotton plug to avoid exposure to tested volatiles. In total, 60 adults (30 male and 30 female) were tested per volatile compound, and χ^2 tests were applied to evaluate the number of M. separata individuals attracted to or repelled by volatiles.

MsepCSP8, sequence (A0A1V1WC03 entry or part of it): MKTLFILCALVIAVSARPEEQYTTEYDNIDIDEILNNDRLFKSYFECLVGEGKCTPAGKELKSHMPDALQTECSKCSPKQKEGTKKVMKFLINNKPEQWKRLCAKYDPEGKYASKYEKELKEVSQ

Molecule	IC50 ([1]; IC50, pH 5.0)	IC50 ([1]; IC50, pH 7.4)	Ki ([1]; Ki, pH 5.0)	Ki ([1]; Ki, pH 7.4)	IC50 ([1]; pH 5.0, read-out: IC50)	Ki ([1]; pH 7.4, read-out: Ki)	IC50 ([1]; pH 7.4, read-out: IC50)	other results
C=CC(C)(O)CCC=C(C)CCC=C(C)C (mixture of isomers) [Nerolidol]	15.4 µM	15 µM	11.5 µM	10.5 µM				
CC1=CCC2C(C1)C2(C)C (single isomer, unassigned; (+)) [(+)-3-Carene]					17.7 µM	9.42 µM	13.4 µM	binding affinity to MsepCSP8 in words [1]: high binding affinities; Ki ([1]; pH 5.0, read-out: Ki): 13.2 µM
CC1(C)CCC[C@@]2(C)[C@@H]3CC4C([C@@H]31)C42C (single isomer, unassigned; (+)) [(+)-Longicyclene]					395 µM	28.2 µM	40.1 µM	Ki ([1]; pH 5.0, read-out: Ki): 295 µM
C=C(C)C1CCC2(C)OC2C1 (single isomer, unassigned; (-)) [(–)-Limonene oxide]					46.9 µM	12.3 µM	17.5 µM	Ki ([1]; pH 5.0, read-out: Ki): 35 µM
c1ccc(Nc2cccc3ccccc23)cc1 [1-NPN, N-phenyl-1-naphthylamine, reference compound]								Kd ([1]; pH 5.0): 2.93 µM; Kd ([1]; pH 7.4): 2.41 µM
C=CC(O)CCCCC (centres unmarked) [1-Octen-3-ol]	13.2 µM	8.25 µM	9.88 µM	5.79 µM				binding affinity to MsepCSP8 in words [1]: bound strongly
CCCCCC(C)O (centres unmarked) [2-Heptanol]	25.6 µM	23.8 µM	19.1 µM	16.7 µM				
CCC(C)C=O (centres unmarked) [2-Methylbutyraldehyde]	21.4 µM	13.8 µM	16 µM	9.66 µM				binding affinity to MsepCSP8 in words [1]: high affinities
CCCCCCCCCC(C)=O [2-Undecanone]	22.3 µM	35.5 µM	16.6 µM	24.9 µM				
CCC(O)CC [3-Pentanol]	17.3 µM	16 µM	12.9 µM	11.3 µM				
Cc1ccc(C(C)C)cc1 [4-Isopropyltoluene]	7.72 µM	18 µM	5.76 µM	12.6 µM				
CC1=CC[C@@H]2[C@@H]3[C@H]1[C@@]2(C)CCCC3(C)C [(+)-α-longipinene]					14.4 µM	9.86 µM	14.1 µM	binding affinity to MsepCSP8 in words [1]: high binding affinities; Ki ([1]; pH 5.0, read-out: Ki): 10.8 µM
C=C1CC[C@@H]2C[C@H]1C2(C)C [(R)-(+)-β-pinene]					26.4 µM	9.73 µM	13.9 µM	binding affinity to MsepCSP8 in words [1]: high binding affinities; Ki ([1]; pH 5.0, read-out: Ki): 19.7 µM
CC1=CC(=O)[C@H]2C[C@@H]1C2(C)C [(S)-(-)-verbenone]					21.5 µM	9.27 µM	13.2 µM	binding affinity to MsepCSP8 in words [1]: high binding affinities; Ki ([1]; pH 5.0, read-out: Ki): 16.1 µM
C=C1CC[C@H]2O[C@]2(C)CC[C@@H]2[C@@H]1CC2(C)C [(–)-Caryophyllene oxide]	10.3 µM	19.6 µM	7.67 µM	13.7 µM				
CC/C=C\CCO [Cis-3-hexen-1-ol]	29.8 µM	21.4 µM	22.3 µM	15 µM				
CC/C=C\CCOC(C)=O [Cis-3-hexenyl acetate]	24.6 µM	21 µM	18.4 µM	14.8 µM				
OC1CCCCC1 [Cyclohexanol]								behavioral response in words ([2]; male and female moths): distinct preference
CCCCCCCCCC=O [Decanal]	31 µM	20.4 µM	23.2 µM	14.3 µM				
CCCCCCCCCCCC=O [Dodecyl aldehyde]					36.9 µM	17.3 µM	24.6 µM	Ki ([1]; pH 5.0, read-out: Ki): 27.5 µM
CCC/C=C/COC(C)=O [E-2-Hexen-1-ol acetate]	62.8 µM	14.6 µM	46.9 µM	10.2 µM				
CCCCCCCCCCCCCCCCCCCC [Eicosane]	46.3 µM	48 µM	34.6 µM	33.7 µM				
CCOC(C)=O [Ethyl acetate]	29.2 µM	67.3 µM	21.8 µM	47.2 µM				

Molecule	IC50 ([1]; IC50, pH 5.0)	IC50 ([1]; IC50, pH 7.4)	Ki ([1]; Ki, pH 5.0)	Ki ([1]; Ki, pH 7.4)	IC50 ([1]; pH 5.0, read-out: IC50)	Ki ([1]; pH 7.4, read-out: Ki)	IC50 ([1]; pH 7.4, read-out: IC50)	other results
CC12CCC(CC1)C(C)(C)O2 [Eucalyptol]	88.1 µM	25.2 µM	65.7 µM	17.7 µM				
CCCCCCCCCCCCCCCC [Hexadecane]	10.3 µM	14.8 µM	7.65 µM	10.4 µM				
CCCCCC [Hexane]	26.3 µM	9.69 µM	19.6 µM	6.8 µM				binding affinity to MsepCSP8 in words [1]: bound highly
C=CC(C)(O)CCC=C(C)C (centres unmarked) [Linalool]	25 µM	14.5 µM	18.7 µM	10.1 µM				
COC(=O)c1ccccc1 [Methyl benzoate]	21.2 µM	12.5 µM	15.8 µM	8.8 µM				binding affinity to MsepCSP8 in words [1]: bound highly
C=CC(=C)CCC=C(C)C [Myrcene]	17.4 µM	16.6 µM	13 µM	11.6 µM				
CCCCCCCCCCCCCCCCCCC [Nonadecane]	19.8 µM	25.1 µM	14.8 µM	17.6 µM				
CCCCCCCCC=O [Nonanal]	14.9 µM	12.7 µM	11.1 µM	8.92 µM				binding affinity to MsepCSP8 in words [1]: high affinities
C=CC(C)=CCC=C(C)C [Ocimene]					15.6 µM	11.7 µM	16.7 µM	Ki ([1]; pH 5.0, read-out: Ki): 11.6 µM
CCCCCCCC [Octane]	15.9 µM	37 µM	11.8 µM	26 µM				
CCCCCCCCCCCCCCCCCCCCCCCCC [Pentacosane]	11.2 µM	24.4 µM	8.36 µM	17.1 µM				
C=C(C)[C@H]1CC=C(C)CC1 [R-(+)-Limonene]					18.9 µM	16.5 µM	23.5 µM	Ki ([1]; pH 5.0, read-out: Ki): 14.1 µM
CCCCCCCCCCCCCC [Tetradecane]	23.8 µM	17.9 µM	17.8 µM	12.6 µM				
CCC/C=C/CO [Trans-2-hexen-1-ol]	8.46 µM	23.8 µM	6.31 µM	16.7 µM				binding affinity to MsepCSP8 in words [1]: bound strongly
CCCCCCCCCCCCCCCCCCCCC [n-Heneicosane]	36.5 µM	9.59 µM	27.2 µM	6.73 µM				binding affinity to MsepCSP8 in words [1]: bound highly
C/C1=C\CC/C(C)=C/CC(C)(C)/C=C/C1 [α-Humulene]					23.1 µM	13 µM	18.5 µM	Ki ([1]; pH 5.0, read-out: Ki): 17.2 µM
CC1=CC=C(C(C)C)CC1 [α-Terpinene]								behavioral response (attraction) of females ([2]; 3-day-old female moths, 10 μl volatile vs liquid paraffin): 70%; behavioral response (attraction) of males ([2]; 3-day-old male moths, 10 μl volatile vs liquid paraffin): 66%
CC(=O)/C=C/C1=C(C)CCCC1(C)C [β-Lonone]	22.8 µM	10.3 µM	17 µM	7.22 µM				binding affinity to MsepCSP8 in words [1]: high affinity
(+)-Fenchone					20 µM	20.8 µM	29.7 µM	Ki ([1]; pH 5.0, read-out: Ki): 14.9 µM
(–)-Isolongifolene					61.6 µM	17.3 µM	24.6 µM	Ki ([1]; pH 5.0, read-out: Ki): 46 µM
(–)-Limonene					15.1 µM	28.4 µM	40.4 µM	Ki ([1]; pH 5.0, read-out: Ki): 11.2 µM
Farnesene					20.2 µM	13.1 µM	18.6 µM	
